We go through one compound from patent US5656603A (Loyola University of Chicago, priority 1995, dated 1997).

Usually IC50 stands for the point on the concentration scale where inhibition reaches its midpoint.

The assay concerns the target T1, angiotensin converting enzyme (EC 3.4.15.1) (Bos taurus, UniProt P12820).
T1 construct: Unless otherwise indicated, the source of each enzyme activity was a detergent extract of bovine lung; from tissue; host or cells: detergent extract of bovine lung
T1 sequence (P12820 29-1306): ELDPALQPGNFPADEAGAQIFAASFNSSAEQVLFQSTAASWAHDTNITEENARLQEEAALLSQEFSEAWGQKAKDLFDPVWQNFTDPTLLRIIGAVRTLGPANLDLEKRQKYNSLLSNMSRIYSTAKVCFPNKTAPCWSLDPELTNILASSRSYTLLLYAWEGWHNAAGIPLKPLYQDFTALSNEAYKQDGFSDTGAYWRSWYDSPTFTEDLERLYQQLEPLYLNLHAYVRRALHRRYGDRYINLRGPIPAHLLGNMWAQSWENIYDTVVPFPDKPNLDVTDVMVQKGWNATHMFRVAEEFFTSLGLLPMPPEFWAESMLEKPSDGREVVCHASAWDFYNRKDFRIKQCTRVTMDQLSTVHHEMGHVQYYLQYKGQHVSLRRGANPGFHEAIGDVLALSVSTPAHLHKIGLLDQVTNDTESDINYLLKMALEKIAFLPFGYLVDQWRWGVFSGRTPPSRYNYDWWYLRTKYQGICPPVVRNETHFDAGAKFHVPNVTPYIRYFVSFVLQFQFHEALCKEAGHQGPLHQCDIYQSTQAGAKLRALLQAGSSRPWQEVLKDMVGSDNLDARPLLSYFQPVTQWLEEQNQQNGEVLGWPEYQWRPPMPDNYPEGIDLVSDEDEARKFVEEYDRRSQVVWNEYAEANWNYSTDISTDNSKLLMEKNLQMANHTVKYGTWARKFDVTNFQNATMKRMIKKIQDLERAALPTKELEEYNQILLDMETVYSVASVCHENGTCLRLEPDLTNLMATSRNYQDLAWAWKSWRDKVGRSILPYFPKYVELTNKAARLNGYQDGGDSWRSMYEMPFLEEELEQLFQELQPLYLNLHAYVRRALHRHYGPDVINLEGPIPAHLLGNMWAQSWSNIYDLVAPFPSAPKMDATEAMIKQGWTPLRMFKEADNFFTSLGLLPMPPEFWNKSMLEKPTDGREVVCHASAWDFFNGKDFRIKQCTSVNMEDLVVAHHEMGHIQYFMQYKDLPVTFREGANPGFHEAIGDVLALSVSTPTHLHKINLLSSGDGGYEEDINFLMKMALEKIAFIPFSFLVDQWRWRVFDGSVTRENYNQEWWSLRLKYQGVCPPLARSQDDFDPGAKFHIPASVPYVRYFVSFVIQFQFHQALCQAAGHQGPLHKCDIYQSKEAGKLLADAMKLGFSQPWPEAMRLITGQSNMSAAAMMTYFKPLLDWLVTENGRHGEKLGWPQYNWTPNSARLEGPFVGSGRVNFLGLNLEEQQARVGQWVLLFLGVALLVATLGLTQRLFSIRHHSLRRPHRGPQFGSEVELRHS
Put plainly: Specificity of apstatin: angiotensin converting enzyme. Type of assay: biochemical. The settings on record: detergent extract of bovine lung; Hip-His-Leu, pH 6.5, HPLC-1. As for the experimental part: Specificity of Apstatin--Apstatin was assayed for its ability to inhibit several other peptidases. […] Unless otherwise indicated, the source of each enzyme activity was a detergent extract of bovine lung prepared as described in (12-13). Activities were determined by a modification of the fluorescent assay described above (indicated by "FLUO") or by HPLC separation and quantitation of reaction products using the method described in (12) (method "HPLC-1") or the method described below (method "HPLC-2"). […]

In the case of `C[C@H](NC(=O)[C@@H]1CCCN1C(=O)[C@@H]1CCCN1C(=O)[C@@H](O)[C@H](N)Cc1ccccc1)C(N)=O` [apstatin, N-[(2S, 3R)-3-amino-2-hydroxy-4-phenylbutanoyl]-L-prolyl-L-prolyl-Lalaninamide], the IC50 was greater than 800 µM.
